Values belong to the molecule of their own block, whether it stands above or below them.
Assays:
SKBR3 cells [1] = assay: Control SKBR3 cells with ERE-Luc plasmid but not transfected with ER; assay type: cell-based, human; conditions: E2 10 nM, 24 h
Experimental: SKBR3 cells were transfected with 0 .2 µ g ERE-Luc plasmid, 0.05 µ g of either pcDNA3ERα or pcDNA3ERβ, and 0.55 µg pcDNA3.1+. Control SKBR3 cells were transfected with 0.2 µ g ERE-Luc plasmid and 0.6 µ g pcDNA3.1+. Cells were treated for 24 h, lysed, and luciferase activity assessed. Luciferaseexpression was normalized using the Bradford assay.

ERα or ERβ [2] = conditions: E2 standard set as 100%; cited from earlier work
human ERβ = target: T1, human ERβ (Homo sapiens, UniProt Q92731); assay: SKBR3 cells transiently transfected with ERβ and ER-responsive luciferase reporter; assay type: cell-based; conditions: for maximum luciferase induction, percent of maximum E2 activity: ERβ-transfected SKBR3, 10 nM E2 = 100%, normalized to protein
T1 construct: human ERβ segment (530 aa, GenBank: AF051427.1); expressed in transfected cells; host or cells: SKBR3 (human breast carcinoma), transient transfection with ERβ/pcDNA3
T1 sequence (Q92731 whole entry): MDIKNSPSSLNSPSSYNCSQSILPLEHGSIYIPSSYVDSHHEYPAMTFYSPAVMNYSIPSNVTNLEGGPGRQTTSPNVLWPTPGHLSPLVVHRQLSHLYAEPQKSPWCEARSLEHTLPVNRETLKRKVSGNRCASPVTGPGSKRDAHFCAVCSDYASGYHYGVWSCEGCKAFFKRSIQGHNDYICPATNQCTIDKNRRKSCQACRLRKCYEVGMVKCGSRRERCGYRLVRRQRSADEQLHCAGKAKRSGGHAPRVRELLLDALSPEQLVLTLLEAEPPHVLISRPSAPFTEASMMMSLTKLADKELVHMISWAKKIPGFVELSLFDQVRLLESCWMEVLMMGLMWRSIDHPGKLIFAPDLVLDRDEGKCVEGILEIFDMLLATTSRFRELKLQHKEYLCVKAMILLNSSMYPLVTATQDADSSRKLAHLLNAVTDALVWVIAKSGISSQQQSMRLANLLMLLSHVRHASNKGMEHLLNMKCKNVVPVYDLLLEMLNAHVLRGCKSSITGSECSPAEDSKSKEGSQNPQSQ
From the text: (§1) The human ERβ expression plasmid (ERβ/pcDNA3) was constructed by PCR amplification of the human ERβ segment (530 aa, GenBank: AF051427.1) out of pCMV5 (kindly provided by Dr. John Katzenellenbogen, University of Illinois) and insertion of this fragment at BstEII and AflII restriction sites into the modified pcDNA3 construct, which was previously described. […] The human ERα expression plasmid, pcDNA3.1 + ERα, was purchased from Missouri S&T cDNA Resouce Center and was confirmed by restriction digestion. […] The generated plasmids were verified by DNA sequencing. Plasmids ERβ/pcDNA3 and ERα/pcDNA3were used as templates for in vitro expression (Additional file 2); ERα and ERβ were synthesized in vitro using the TNT Quick coupled transcription/translation rabbit reticulocyte lysate system (Promega). Briefly, ^35S-Radiolabeled hERα and hERβ were synthesized in separate reactions in vitro according to manufacturer’s protocol, denatured, and subjected to SDS-polyacrylamide gel electrophoresis, and the kDa of each protein was determined by autoradiography of the dried gel.
(§2) Protein concentration was determined using the Bradford assay.
(§3) Luciferase activity was expressed as relative light units (RLU) for assays using BG1Luc4E2 cells or as a ratio of luciferase RLU/mg protein for assays using SKBR3 cells. Protein amount (mg) was calculated from concentrations obtained in Bradford assay and the respective luciferase RLU was divided by mg protein to obtain luciferase RLU/mg protein. Average luciferase RLU (or luciferase RLU/mg protein) values were calculated from triplicate wells. Solvent luciferase RLU (or luciferase RLU/mg) was subtracted from luciferase RLU induced by chemical. In the case of extract and fractions, luciferase RLU induced by method blank was subtracted from luciferase RLU induced by extract or fraction. […] The Student’s t-test (2-tailed, paired) was used to establish significant difference of chemical/fraction/extract activity from that of solvent or method blank (p ≤ 0.05), and dose–response curves were fitted using a sigmoidal Hill’s 4-parameter algorithm (SigmaPlot v.9.0, Systat, San Jose, CA), as described previously. Half-maximal inductions of each treatment (EC50) were determined as described in [34].

SKBR3 cells [3] = assay: Toxicity observed in transfected SKBR3 cells (protein concentration, RLU, cell death)
Experimental: SKBR3 cells were grown and maintained in high-glucose DMEM and 10% premium FBS. SKBR3 cells were cultured in phenol red-free medium supplemented with 10% charcoal-stripped FBS for 48 h before transfection and seeded in 24-well plates at a density of 300,000 cells/mL. 24 h after plating, cells were transfected for 24 h using Lipofectamine reagent (2 μL/well) according to the manufacturer’s recommendations (0.2 μg of ER-responsive reporter plasmid pGudLuc7ere [32] and 0.05 μg receptor plasmids (ERα/pcDNA3 or ERβ/pcDNA3) or empty vector (pcDNA3.1+) per well, normalizing μg DNA/well to 0.8 μg/well with empty vector). 24 h post-transfection, SKBR3 cells were incubated for 24 h with chemical, the cells harvested, and both protein concentration and luciferase activity determined. Protein concentration was determined using the Bradford assay [35]. Briefly, 5 μL/well SKBR3 lysate was incubated for 5 min at room temperature with 1X Bradford Reagent (200 μL). Protein concentration was calibrated against a standard curve of bovine serum albumin (0.05-0.5 mg/mL) on the same plate and was measured as mg protein/mL using a PhosphorImager (Molecular Dynamics).

ERα or ERβ [4] = conditions: greater in ERβ; cited from earlier work
estrogen receptor = target: T2, estrogen receptor (Homo sapiens, UniProt P03372); assay: BG1Luc4E2 stably transfected estrogen-responsive luciferase reporter bioassay; assay type: cell-based
T2 construct: the BG1Luc4E2 cell line endogenously expresses ERα; endogenous in cells; host or cells: BG1Luc4E2 (human ovarian carcinoma, stably transfected ERE-luciferase reporter)
T2 sequence (P03372 whole entry): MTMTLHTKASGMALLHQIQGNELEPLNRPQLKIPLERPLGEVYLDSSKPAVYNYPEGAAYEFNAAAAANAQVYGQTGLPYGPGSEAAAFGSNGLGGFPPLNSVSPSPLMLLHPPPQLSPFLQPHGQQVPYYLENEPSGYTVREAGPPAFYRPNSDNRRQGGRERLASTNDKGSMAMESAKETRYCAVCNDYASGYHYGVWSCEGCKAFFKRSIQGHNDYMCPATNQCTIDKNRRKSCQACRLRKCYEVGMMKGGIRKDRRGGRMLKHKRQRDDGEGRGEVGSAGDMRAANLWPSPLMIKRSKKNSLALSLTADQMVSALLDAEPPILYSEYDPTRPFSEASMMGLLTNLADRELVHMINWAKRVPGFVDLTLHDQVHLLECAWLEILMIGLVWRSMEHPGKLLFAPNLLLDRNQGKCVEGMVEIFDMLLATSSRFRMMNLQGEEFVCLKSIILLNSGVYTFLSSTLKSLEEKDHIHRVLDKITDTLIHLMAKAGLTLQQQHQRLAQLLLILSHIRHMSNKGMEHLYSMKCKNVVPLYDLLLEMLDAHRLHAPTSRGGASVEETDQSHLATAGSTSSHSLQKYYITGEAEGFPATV
Experimental: as §2, §3

human ERα = human ERα (Homo sapiens, UniProt P03372); assay: SKBR3 cells transiently transfected with ERα and ER-responsive luciferase reporter; assay type: cell-based
human ERα, sequence (P03372 311-547): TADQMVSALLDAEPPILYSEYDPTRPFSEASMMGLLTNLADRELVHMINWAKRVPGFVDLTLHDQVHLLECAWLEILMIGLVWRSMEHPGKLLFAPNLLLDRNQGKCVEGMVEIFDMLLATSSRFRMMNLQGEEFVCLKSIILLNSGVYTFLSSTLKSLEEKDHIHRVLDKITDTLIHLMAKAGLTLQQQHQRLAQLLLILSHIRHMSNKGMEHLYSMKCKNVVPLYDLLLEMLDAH
From the text: as §1, §2
Luciferase activity was expressed as relative light units (RLU) for assays using BG1Luc4E2 cells or as a ratio of luciferase RLU/mg protein for assays using SKBR3 cells. Protein amount (mg) was calculated from concentrations obtained in Bradford assay and the respective luciferase RLU was divided by mg protein to obtain luciferase RLU/mg protein. Average luciferase RLU (or luciferase RLU/mg protein) values were calculated from triplicate wells. Solvent luciferase RLU (or luciferase RLU/mg) was subtracted from luciferase RLU induced by chemical. In the case of extract and fractions, luciferase RLU induced by method blank was subtracted from luciferase RLU induced by extract or fraction. […] Half-maximal inductions of each treatment (EC50) were determined as described in [34].

BG1Luc4E2 cells = assay: Cell death/toxicity observed in BG1Luc4E2 bioassay; assay type: cell-based, human
Experimental: Method blank treatments were included if applicable. […] Protein concentration was determined using the Bradford assay.

SMILES: C[C@]12CC[C@@H]3c4ccc(O)cc4CC[C@H]3[C@@H]1CC[C@@H]2O [E2, 17-β-estradiol]
luciferase expression in cells not transfected with ER (SKBR3 cells [1]): do not express luciferase

SMILES: COc1ccc(-c2coc3cc(O)cc(O)c3c2=O)cc1 [biochanin A]
relative binding affinity, ERβ versus ERα (ERα or ERβ [2]): greater to ERβ than to ERα

SMILES: O=c1oc2cc(O)ccc2c2oc3cc(O)ccc3c12 [coumestrol]
relative binding affinity, ERβ versus ERα (ERα or ERβ [2]): greater to ERβ than to ERα

SMILES: O=c1c(-c2ccc(O)cc2)coc2cc(O)ccc12 [diadzein]
relative binding affinity, ERβ versus ERα (ERα or ERβ [2]): greater to ERβ than to ERα

SMILES: Cc1cc(O)c2c(c1)C(=O)c1cc(O)cc(O)c1C2=O [emodin, reference compound]
maximum luciferase induction, percent of maximum E2 activity (human ERβ): 127 ± 26% | EC50 (human ERβ; SKBR3 (ERβ), luciferase, 24 h, read-out: EC50 (concentration for half-maximal induction)): 3 µM | concentrations toxic to SKBR3 cells (SKBR3 cells [3]): greater than 10 μM | REP in ERβ-transfected versus ERα-transfected yeast cells (ERα or ERβ [4]): approximately one order of magnitude

SMILES: O=c1c(-c2ccc(O)cc2)coc2cc(O)cc(O)c12 [genistein, reference compound]
concentrations resulting in significantly decreased RLU (SKBR3 cells [3]): greater than 10 μM

maximum luciferase induction, percent of maximum E2 activity (human ERβ): 80 ± 10% | REP (relative estrogenic potency = EC50 E2/EC50 chemical) (human ERβ; SKBR3 (ERβ)): 1.5 × 10^-5 | EC50 (estrogen receptor; BG1Luc4E2 (ovarian), luciferase, 24 h, read-out: EC50 (concentration for half-maximal induction)): 120 µM | concentrations resulting in no luciferase induction (estrogen receptor; BG1Luc4E2 cells): below 31.6 μM | orders of magnitude weaker in potency than the E2 standard (estrogen receptor; BG1Luc4E2 cells): approximately 7 orders of magnitude | maximum luciferase induction, percent of maximum E2 activity (estrogen receptor; BG1Luc4E2 cells, 1 nM E2 = 100%, 24 h): > 400% | luciferase induction, percent of maximum E2 activity (estrogen receptor; BG1Luc4E2 cells, 119 μM and 158 μM, superinduction): > 400% | maximum luciferase induction, percent of maximum E2 activity (human ERα; ERα-transfected SKBR3, 10 nM E2 = 100%, normalized to protein): 78 ± 8% | REP (relative estrogenic potency = EC50 E2/EC50 chemical) (human ERα; SKBR3 (ERα)): 3.4 × 10^-6 | EC50 (human ERα; SKBR3 (ERα), luciferase, 24 h, read-out: EC50 (concentration for half-maximal induction)): 5.8 µM
SMILES: O=C(C=Cc1ccc(O)cc1)OC1Cc2c(O)cc(O)cc2OC1c1ccc(O)cc1 [rhodoeosein, 2,3-cis-(2R,3R)-(−)-epiafzelechin-3-O-p-coumarate]
concentrations resulting in significantly decreased protein concentration (SKBR3 cells [3]): greater than 100 μM | effect on cells at 0.316 mM (SKBR3 cells [3]): caused cell death | concentrations that killed BG1Luc4E2 cells (BG1Luc4E2 cells; 24 h incubation): ≥ 250 µM | effect on cells at 0.25, 0.316, and 1 mM (BG1Luc4E2 cells; BG1Luc4E2 cells): caused cell death | toxicity at 197 μM (BG1Luc4E2 cells; BG1Luc4E2 cells, 197 μM): no toxicity
